According to patent US6296870A, “Liposomes containing active agents” (Duke University, priority 1998, dated 2001):
Entries after “also recorded” stand apart in the source; their conditions may differ.

Key:
[1] = Mechanical tests of bilayer tensile strength; assay type: physicochemical
Method: (3) Mechanical tests of bilayer tensile strength were carried out on vesicles that contained 0-20 mol % PEG(750)-lipid as a function of MOPC uptake.
As the bilayer takes up more and more of a water-soluble second component (e.g., bile acid or MOPC) it is expected that it will become weaker and softer (Evans et al., In Bile Acids in Gasteroenterology Basic and Clinical Advances, Hoffman et al. (Eds.) Kluwer Academic Publishers, Doderecht, Boston and London, pp. 59-68 (1994); Needham and Zhelev, Ann. Biomed. Egr. 23:287 (1995); Zhelev, Biophys J. 71:257 (1996)). To test this model, the tensile rupture strength of vesicles containing various amounts of MOPC at stationary equilibrium was measured. […] To obtain the wide range of MOPC bilayer concentrations, several different lipid, PEG-lipid and MOPC solution concentrations were used (0.1 μM MOPC; 1.0 μM MOPC; 20% PEG-lipid and 100 μM MOPC; 4% PEG-lipid and 100 μM MOPC; and 1% PEG-lipid and 100 μM MOPC) as indicated on the plot next to each data point in FIG. 6.
PEG-lipids were used in some but not all of these vesicle tests. Whether the incorporation of the PEG-lipids (DMPE-(PEG)750) themselves had any effect on the tensile strength of the bilayer vesicles was also investigated. […]

[2] = TAXOL solubilized in MOPC micelle suspension; assay type: physicochemical
Method: For concentrations higher than 50 micromolar, samples were diluted in methanol and the original concentrations were back-calculated.
These components were mixed together in glass culture tubes, and the mixture was dried and kept under vacuum for approximately 15 hours to evaporate the solvent. MOPC was chosen because it has an acyl chain composition that matches the di-chain phospholipid, stearoyloleoylphosphatidylcholine, that was used to form the lipid bilayers of encapsulating liposomes, as discussed below. […] Surfactants with high CMCs (e.g., in the mM range) readily dissolve lipid membranes, even when the membranes contain cholesterol.

[3] = Solubility of TAXOL in water and organic solvents; assay type: physicochemical; conditions: hexane or tetradecane
[4] = cited from earlier work
[5] = MOPC uptake into and desorption from single vesicles, micropipet lysolipid exchange; assay type: physicochemical
Method: I. du Pont de Nemours and Co.) disc and the chloroform evaporated under nitrogen. Final traces of solvent were removed by placing the disc in an evacuated desiccator for 2 hours (Needham and Nunn, Biophys. J. 58:997 (1990)). The so-formed dried lipid layers were prehydrated with water vapor in a nitrogen carrier gas and then fully hydrated overnight in a sucrose solution at 40° C. […] Both the pure SOPC and SOPC/PEG(750)-lipid vesicles were re-suspended in a glucose solution of 205 mOsm for use in micromanipulation experiments as described below. […] The microscope images were recorded using a COHU CCD camera. […] The pipettes were connected to a manometer system that allowed the applied pressures to be changed and measured to an accuracy of 2 microatmospheres. The micropipet suction pressures were measured by differential transducer (Validyne DP15-24). The measured pressures together with real time were multiplexed on the recorded images with a multiplexer (Model 401, Vista Electronics, La Mesa, Calif., USA). The recorded images were used to measure the change of the vesicle projection length inside the holding pipet during uptake and desorption of lysolecithin, and to calculate the membrane tension. […] The vesicle projection length (Lp) inside the holding pipet is measured and the effects of various solutions on the Lp of the test vesicle are compared. […]

[6] = Critical micelle concentration by DPH fluorescence; assay type: physicochemical
Method: The critical micelle concentration (CMC) of the lysolipid was measured independently by DPH fluorescence following the method in Chattopadhyay and London, Analytical Biochem. 139:408 (1984). Briefly, a series of solutions containing increasing concentrations of MOPC in the range 10^-7 M to 10^-4 M were prepared. Diphenyl hexatriene (DPH), a lipid soluble fluorescent dye, was added to these samples and the intensity of fluorescence was measured by spectrofluorimeter at absorption and emission wavelengths of 358 nm and 430 nm, respectively. The CMC was determined by plotting the fluorescence intensity (in arbitrary units) verses concentration of MOPC solutions, made up by diluting a 100 mM stock solution of MOPC (solubilized initially by Tetrahydrofuran) in water (Chattopadhyay and London, Analytical Biochem. 139:408 (1984)).
This second trial used SOPC +20 mol % PEG2000 DSPE (0.2 mg/ml, 2×10^-4 M total lipid) for the lipid vesicles and 1 mM PEG2000 DSPE as micellar suspension. […] It was as though the PEG-lipids at this high concentration had formed a gel inside the vesicles.

[7] = unmodified egg PC membranes, flow rate 300 μm/s; cited from earlier work
[8] = small angle neutron scattering; cited from earlier work

1,2-Dimyristoyl-sn-Glycero-3-Phosphoethanolamine -N-PEG-750 [PEG(750)-lipid]
tensile rupture strength, effect [1]: did not reduce the tensile strength significantly, up to 20 mol % PEG-lipid

CC(=O)O[C@H]1C(=O)[C@@]2(C)[C@H]([C@H](OC(=O)c3ccccc3)[C@]3(O)C[C@H](OC(=O)[C@H](O)[C@@H](NC(=O)c4ccccc4)c4ccccc4)C(C)=C1C3(C)C)[C@]1(OC(C)=O)CO[C@@H]1C[C@@H]2O [TAXOL®]
stability of TAXOL in micelle suspension ([2]; 0.2 mM TAXOL, 5 mM MOPC): at least 24 hours
TAXOL solubilized in MOPC micelles ([2]; 5 mM MOPC): up to 1 mM
increase of solubility limit over aqueous solubility ([2]; 20 mM LPC): about 4000 times
solubility limit in aqueous media in presence of LPC ([2]; 20 mM LPC): 4 mM
moles TAXOL solubilized per mole MOPC micelle ([2]; MOPC micelle, data not shown): 1 mole TAXOL per mole MOPC
solubility in alkanes / hexane [3]: not soluble at all in alkanes such as hexane or tetradecane; also recorded: largely insoluble in hexane
water solubility of TAXOL [4]: about 1 micromolar

CCCCCCCC/C=C\CCCCCCCC(=O)OC[C@@H](O)COP(=O)([O-])OCC[N+](C)(C)C [MOPC, mono-oleoyl-phosphatidylcholine]
aggregation number in membrane ([5]; above the CMC): about 12
overall rate of MOPC desorption ([5]; flow rate 400 μm/s, all PEG(750)-lipid concentrations, 5 vesicles): 0.4 ± 0.2 s⁻¹
critical micelle concentration (CMC) [6]: 3 µM
tensile rupture strength, effect [1]: decrease with increasing MOPC concentration
rate of MOPC desorption [7]: 0.2 s⁻¹

CCCCCCC(=O)OCC(COP(=O)([O-])OCC[N+](C)(C)C)OC(=O)CCCCCC (stereo not drawn) [diheptanoylphosphatidylcholine]
micelle aggregation number [8]: 27

CCCCCC(=O)OCC(COP(=O)([O-])OCC[N+](C)(C)C)OC(=O)CCCCC (stereo not drawn) [dicaproylphosphatidylcholine]
micelle aggregation number [8]: 19
